O=C(O)c1ccccc1O
solubility (mole fraction)
Conditions | 298.15 K | 303.15 K | 308.15 K | 313.15 K | 318.15 K
in acetic acid | 0.0531 | 0.0617 | 0.0709 | 0.0785 | 0.0903
in acetone | 0.175 | 0.196 | 0.203 | 0.218 | 0.231
in ethyl acetate | 0.13 | 0.14 | 0.154 | 0.165 | 0.179
in methanol | 0.123 | 0.137 | 0.15 | 0.163 | 0.172

OC/C=C/c1ccccc1
solubility (mole fraction)
Conditions | 253.15 K | 258.15 K | 263.15 K | 268.15 K | 273.15 K | 278.15 K | 283.15 K | 288.15 K | 293.15 K
in acetone | 0.28 | 0.322 | 0.363 | 0.414 | 0.47 | 0.526 | 0.579 | 0.625 | 0.674
in ethanol | 0.22 | 0.256 | 0.298 | 0.342 | 0.404 | 0.456 | 0.52 | 0.59 | 0.652
in ethyl acetate | 0.208 | 0.243 | 0.29 | 0.351 | 0.416 | 0.486 | 0.547 | 0.61 | 0.659
in isobutanol | 0.072 | 0.105 | 0.165 | 0.217 | 0.287 | 0.366 | 0.431 | 0.498 | 0.576
in isopropanol | 0.195 | 0.242 | 0.288 | 0.33 | 0.394 | 0.446 | 0.512 | 0.582 | 0.649
in methanol | 0.222 | 0.24 | 0.269 | 0.307 | 0.351 | 0.401 | 0.466 | 0.536 | 0.61
in methyl acetate | 0.172 | 0.225 | 0.27 | 0.326 | 0.392 | 0.452 | 0.523 | 0.591 | 0.646
in n-butanol | 0.125 | 0.162 | 0.214 | 0.269 | 0.342 | 0.412 | 0.479 | 0.553 | 0.608
in n-hexane | 0.00446 | 0.00664 | 0.0104 | 0.0143 | 0.0194 | 0.0248 | 0.0294 | 0.0352 | 0.0418
in n-propanol | 0.174 | 0.213 | 0.266 | 0.313 | 0.373 | 0.433 | 0.496 | 0.567 | 0.634
in sec-butanol | 0.089 | 0.142 | 0.191 | 0.255 | 0.321 | 0.395 | 0.459 | 0.53 | 0.592
